Legend:
[1] = test system: CD8+ T cells; experiment: Exogenous autologous healthy donor restimulation assay, TNFα and IFNγ production by CD8+ T cells; assay type: cell-based, human; parameters: Frequency (TNFα+ IFNγ+ CD8 T cells): unit not given here; conditions: for Fold change (CD8+) vs. DMSO: maximum CD8+ T-cell response (TNFα and IFNγ); for Fold change (CD8+) vs. DMSO / Frequency (TNFα+ IFNγ+ CD8 T cells): donor independent, peptide pool 10 μg/mL, healthy donors; for Frequency (TNFα+ IFNγ+ CD8 T cells): maximum CD8+ T-cell response; for Immunogenic (yes/no): positive if CD8+ and/or CD4+ double positive TNFα/IFNγ frequency >=3-fold over DMSO and at least 0.01%
Summary of the method: (§1)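 CD1c+ DCs from healthy donor PBMCs pulsed 2 h with 15-mer overlapping neoantigen peptide pools (10 μg/mL), irradiated 50 Gy, then co-cultured 12 days with autologous CD3+ T cells plus IL-15/IL-2. Restimulated day 11 with same pools, overnight with protein inhibitor; intracellular TNFα/IFNγ by flow. Positive: ≥3-fold over DMSO and ≥0.01% double-positive.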

[2] = test system: CD4+ T cells; experiment: Exogenous autologous healthy donor restimulation assay, TNFα and IFNγ production by CD4+ T cells; assay type: cell-based, human; parameters: Frequency (TNFα+ IFNγ+ CD4 T cells): unit not given here; conditions: donor independent, peptide pool 10 μg/mL, healthy donors; for Fold change (CD4+) vs. DMSO: maximum CD4+ T-cell response (TNFα and IFNγ); for Frequency (TNFα+ IFNγ+ CD4 T cells): maximum CD4+ T-cell response
Summary of the method: as §1

Sequence	Fold change (CD8+) vs. DMSO [1]	Frequency (TNFα+ IFNγ+ CD8 T cells) [1]	Immunogenic (yes/no) [1]	Fold change (CD4+) vs. DMSO [2]	Frequency (TNFα+ IFNγ+ CD4 T cells) [2]
QLKKMVSKVRLRRARLPGRAHRSLPRPVESVPAQPSKLPRRAGSPGAVLSDLLRTPPRGACRLVRESPYGSWEGGGRRQSTKAWSGGYLTPAAHPPSSLPLSLELSVGQCSFSFVFINTNKGSYLVVDLRQSSTPVPI [AS11]	4	0.033	Yes	69.02	0.45
QLSVVTRDDYNSSELK [AS87, alternative splicing, BMP6]	44.64	1.25	Yes	4.45	0.016
QRDRDSIKVGLKIYRLRNGLKGL [AS76, alternative splicing, TLE4]	6.15	0.54	Yes	224.35	0.34
RHQENVHTVLVHGKVKGLFYI [AS125, alternative splicing, PRDM5]	28.62	0.78	Yes	6.57	0.023
RPGVFTDIL [FUS53, gene fusion PTPRG-> C3orf14]	76.5	0.78	Yes	6.29	0.041
RQLQQQLSSLSGPEGVPFLKLWCLDDLLSTLLGTCRCPSRAQF [FUS57, gene fusion MED12-> NLGN3]	17.2	0.14	Yes	11.65	0.24
RSISLHKSDPSLLSPN [AS25, alternative splicing, TBCEL]	43.6	0.028	Yes	57.01	0.061
SATTRSITGQDILSLEKERR [AS17, alternative splicing, DCC]	14.05	0.13	Yes	7.078	0.028
SEMVAHERYVFEATGNDSFRTLCLLMK [AS112, alternative splicing, CFAP54]	35.03	0.062	Yes	7.92	0.012
SGLLMNTLTVLILYFLY [FUS9, gene fusion EAF2-> SLC15A2]	5.53	0.13	Yes	3.08	0.031
SLLSLFPGKTVEITCLQHQKC [AS3, alternative splicing, BBS9]	92.41	0.28	Yes	3.43	0.026
SQKQPALKCLLRNNRP [AS84, alternative splicing, ANKRD36]	162.14	4.54	Yes	10.66	0.019
SRAPIKMSVLGQGHSRCLLHCLCLVAPMAFPVRLRVPCGG [AS16, alternative splicing, CAMSAP1]	8200	0.82	Yes	15.062	0.011
SSLQEHRKLLS [AS52, alternative splicing, PRDM5]	12.72	0.18	Yes	1.9	0.012
SSVTTHSSGNLRESPIYH [FUS32, gene fusion GANC-> CAPN3]	12.04	0.018	Yes	3.08	0.008
